According to ChEMBL document CHEMBL3271981, “Potential histamine H2-receptor antagonists. 3. Methylhistamines” (J Med Chem, 1976):
Calls of active or inactive are those of the source. The rule behind the calls is not given here.

Key:
[1] = Retardation factor of the compound using EtOCH2CH2OH-HCl(11N)-H2O at ratio of 8:1:1 as solvent system by thin layer chromatography; format: physicochemical; details: buffer
[2] = Retardation factor of the compound using MeOH-NH4OH-H2O at ratio of 6:1:1 as solvent system by thin layer chromatography; format: physicochemical
[3] = biological target: Histamine H1 receptor (Cavia porcellus) (UniProt P31389); assay: In vitro agonist activity at histamine H1 receptor in guinea pig ileum assessed as contractile response relative to histamine in presence of atropine; format: tissue-based
[4] = tested on: Rattus norvegicus; assay: In vivo agonist activity at histamine H2 receptor in iv dosed anesthetized rat assessed as stimulation of gastric acid secretion relative to histamine; format: functional, Stomach
[5] = tested on: Rattus norvegicus; assay: In vivo antagonist activity at histamine H2 receptor in anesthetized rat assessed as inhibition of histamine-stimulated gastric acid secretion up to 256 umol/kg, iv; format: functional, organism-based; details: Stomach
[6] = tested on: Rattus norvegicus; assay: In vivo agonist activity at histamine H2 receptor in anesthetized rat assessed as stimulation of gastric acid secretion at 486 uml/kg, iv; format: functional, organism-based; details: Stomach

Sequence of Histamine H1 receptor (Cavia porcellus) (P31389 whole entry): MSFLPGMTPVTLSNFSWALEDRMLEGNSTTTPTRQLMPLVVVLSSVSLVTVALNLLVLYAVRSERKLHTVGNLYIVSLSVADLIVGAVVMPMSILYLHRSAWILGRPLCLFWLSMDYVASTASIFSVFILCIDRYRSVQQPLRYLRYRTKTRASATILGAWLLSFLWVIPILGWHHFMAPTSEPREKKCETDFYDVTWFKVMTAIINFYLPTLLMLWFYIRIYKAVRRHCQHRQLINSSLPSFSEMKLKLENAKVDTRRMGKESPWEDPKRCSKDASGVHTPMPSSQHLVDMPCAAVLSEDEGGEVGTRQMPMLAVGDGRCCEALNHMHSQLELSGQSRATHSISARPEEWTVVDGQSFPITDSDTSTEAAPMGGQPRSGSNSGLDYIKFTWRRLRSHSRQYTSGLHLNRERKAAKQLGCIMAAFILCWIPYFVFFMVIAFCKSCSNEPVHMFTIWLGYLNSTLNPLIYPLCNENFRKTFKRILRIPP

Q: Which Rf [1] does the source give for NCCc1c[nH]cn1 [HISTAMINE] here?
A: 0.7

Q: And the Rf [2]?
A: 0.52

Q: What does the source list for CNCCc1cnc[nH]1.Cl?
A: Rf [1]: 0.68; Activity [3]: 72%; Rf [2]: 0.46; Activity [4]: 74%

Q: What does the source list for CC(N)Cc1cnc[nH]1.Cl (stereo not given)?
A: Activity [3]: 0.36%; Activity [4]: 0.8%; Activity [5]: inactive

Q: Which Activity [3] does the source give for CC(C)(CN)c1cnc[nH]1 here?
A: < 0.001%

Q: What about the Activity [6] of the same molecule?
A: inactive

Q: And the Activity [5]?
A: inactive

Q: What does the source list for Cc1ncc(CCN(C)C)[nH]1.Cl?
A: Activity [3]: 16.8%; Activity [4]: 1.4%

Q: With CN(C)CCc1cnc[nH]1.Cl as the molecule, how does the Activity [3] read?
A: 44%

Q: And the Activity [4]?
A: 19%

Q: With Cc1nc[nH]c1CCN(C)C.Cl as the molecule, how does the Rf [1] read?
A: 0.57

Q: And the Activity [3]?
A: 0.1%

Q: And the Rf [2]?
A: 0.72

Q: And the Activity [4]?
A: 3%

Q: With Cl.Cl.Cn1cnc(CCN)c1 [N-METHYLHISTAMINE DIHYDROCHLORIDE] as the molecule, how does the Activity [3] read?
A: 0.5%

Q: What about the Activity [5] of the same molecule?
A: inactive

Q: Which Rf [1] does the source give for Cc1nc[nH]c1CCN.Cl here?
A: 0.7

Q: And the Activity [3]?
A: 0.23%

Q: And the Rf [2]?
A: 0.56

Q: And the Activity [4]?
A: 39%

Q: With CC(CN)c1cnc[nH]1.Cl (stereo not given) as the molecule, how does the Activity [3] read?
A: 0.83%

Q: What about the Activity [4] of the same molecule?
A: 0.4%

Q: And the Activity [5]?
A: inactive

Q: With Cc1ncc(CCN)[nH]1.Cl as the molecule, how does the Activity [3] read?
A: 16.5%

Q: And the Activity [4]?
A: 2%

Q: With Cl.Cn1cncc1CCN as the molecule, how does the Rf [1] read?
A: 0.56

Q: What about the Activity [3] of the same molecule?
A: < 0.01%

Q: And the Rf [2]?
A: 0.63

Q: What about the Activity [4] of the same molecule?
A: <0.2%

Q: And the Activity [5]?
A: inactive

Q: With CNCCc1[nH]cnc1C.Cl as the molecule, how does the Rf [1] read?
A: 0.7

Q: And the Activity [3]?
A: 0.16%

Q: And the Rf [2]?
A: 0.51

Q: What about the Activity [4] of the same molecule?
A: 8.2%
